Test results taken from patent US11279683B2, “Thiophene derivatives as antiviral agents” (ENYO PHARMA, priority 2016, dated 2022).
Like-named read-outs stand apart in the source and are kept apart here.

Test system: H1N1 (influenza A/New Caledonia/20/99)
Assay: microbe, parasite or virus in culture
Assay type: cell-based
[1] = Influenza A virus, H1N1, A549, 48 h

SMILES	IC50 [1] [µM]	IC50 [µM]
CS(=O)(=O)N1CCOCC1C(=O)Nc1sc2c(c1C(=O)Nc1ccc(Cl)cc1)CCC2 (stereo not shown) [Compound 93, N-[3-[(4-chlorophenyl)carbamoyl]-5,6-dihydro-4H-cyclopenta[b]thiophen-2-yl]-4-methylsulfonyl-morpholine-3-carboxamide]	12.7	
O=C(Nc1ccc(OC(F)(F)F)cc1)c1c(NC(=O)C2CCCCC2C(=O)O)sc2c1CCC2 (stereo not shown) [Compound 20, 2-[[3-[[4-(Trifluoromethoxy)phenyl]carbamoyl]-5,6-dihydro-4H-cyclopenta[b]thiophen-2-yl]carbamoyl]cyclohexanecarboxylic acid]	6.48	
O=C(NC1CCCCC1)c1c(NC(=O)C2CCCCC2C(=O)O)sc2c1CCC2 (stereo not shown) [Compound 65, 2-[[3-(Cyclohexylcarbamoyl)-5,6-dihydro-4H-cyclopenta[b]thiophen-2-yl]carbamoyl]cyclohexanecarboxylic acid]	17.7	
O=C(Nc1ccc(Cl)cc1)c1c(NC(=O)C2CCCCC2)sc2c1CCC2 [Compound 52, N-(4-Chlorophenyl)-2-(cyclohexanecarbonylamino)-5,6-dihydro-4H-cyclopenta[b]thiophene-3-carboxamide]	29.3	
O=C(NC1CCc2ccccc21)c1c(NC(=O)C2CCCCC2C(=O)O)sc2c1CCC2 (stereo not shown) [Compound 23, 2-[[3-(Indan-1-ylcarbamoyl)-5,6-dihydro-4H-cyclopenta[b]thiophen-2-yl]carbamoyl]cyclohexanecarboxylic acid]	6.28	
O=C(Nc1ccc(C(F)(F)F)nc1)c1c(NC(=O)C2CCCCC2C(=O)O)sc2c1CCC2 (stereo not shown) [Compound 32, 2-[[3-[[6-(Trifluoromethyl)-3-pyridyl]carbamoyl]-5,6-dihydro-4H-cyclopenta[b]thiophen-2-yl]carbamoyl]cyclohexanecarboxylic acid]	22	
Cc1cc(NC(=O)c2c(NC(=O)C3CCCCC3C(=O)O)sc3c2CCC3)ccc1Cl (stereo not shown) [Compound 13, 2-[[3-[(4-Chloro-3-methyl-phenyl)carbamoyl]-5,6-dihydro-4H-cyclopenta[b]thiophen-2-yl]carbamoyl]cyclohexanecarboxylic acid]	4.68	
Cc1cccc(NC(=O)c2c(NC(=O)C3CCCCC3C(=O)O)sc3c2CCC3)c1 (stereo not shown) [Compound 58, 2-[[3-(m-Tolylcarbamoyl)-5,6-dihydro-4H-cyclopenta[b]thiophen-2-yl]carbamoyl]cyclohexanecarboxylic acid]	27.6	
O=C(Nc1ccc(Cl)cc1)c1c(NC(=O)C2CCCCC2C(=O)O)sc2c1CSC2 (stereo not shown) [Compound 38, 2-[[3-[(4-Chlorophenyl)carbamoyl]-4,6-dihydrothieno[3,4-b]thiophen-2-yl]carbamoyl]cyclohexanecarboxylic acid]	6.44	
O=C(Nc1ccccc1)c1c(NC(=O)C2CCCCC2C(=O)O)sc2c1CCC2 (stereo not shown) [Compound 74, 2-[[3-(Phenylcarbamoyl)-5,6-dihydro-4H-cyclopenta[b]thiophen-2-yl]carbamoyl]cyclohexanecarboxylic acid]	12.4	
O=C(O)C1CCCCC1C(=O)Nc1sc2c(c1C(=O)N1CCN(c3ccc(Cl)cc3)CC1)CCC2 (stereo not shown) [Compound 36, 2-[[3-[4-(4-chlorophenyl)piperazine-1-carbonyl]-5,6-dihydro-4H-cyclopenta[b]thiophen-2-yl]carbamoyl]cyclohexanecarboxylic acid]	21	
Cc1nccn1CC(=O)Nc1sc2c(c1C(=O)Nc1ccc(Cl)cc1)CCCC2 [Compound 75, N-(4-Chlorophenyl)-2-[[2-(2-methylimidazol-1-yl)acetyl]amino]-4,5,6,7-tetrahydrobenzothiophene-3-carboxamide]	17.1	
CC1CCC(NC(=O)c2c(NC(=O)C3CCCCC3C(=O)O)sc3c2CCC3)CC1 (stereo not shown) [Compound 35, 2-[[3-[(4-Methylcyclohexyl)carbamoyl]-5,6-dihydro-4H-cyclopenta[b]thiophen-2-yl]carbamoyl]cyclohexanecarboxylic acid]	12.4	
O=C(NCc1ccccc1)c1c(NC(=O)C2CCCCC2C(=O)O)sc2c1CCC2 (stereo not shown) [Compound 63, 2-[[3-(Benzylcarbamoyl)-5,6-dihydro-4H-cyclopenta[b]thiophen-2-yl]carbamoyl]cyclohexanecarboxylic acid]	21.4	
CS(=O)(=O)N[C@@H]1CCCC[C@@H]1C(=O)Nc1sc2c(c1C(=O)Nc1ccc(Cl)cc1)CCC2 [Compound 85, N-(4-chlorophenyl)-2-[[(1S,2R)-2-(methanesulfonamido)cyclohexanecarbonyl]amino]-5,6-dihydro-4H-cyclopenta[b]thiophene-3-carboxamide]	5.6	
O=C(Nc1ccc(Cl)cc1)c1c(NC(=O)C2CCC(C(=O)O)CC2)sc2c1CCC2 (single isomer, unassigned) [Compound 98, 4-[[3-[(4-chlorophenyl)carbamoyl]-5,6-dihydro-4H-cyclopenta[b]thiophen-2-yl]carbamoyl]cyclohexanecarboxylic acid]		15.9
CCCCCNC(=O)c1c(NC(=O)C2CCCCC2C(=O)O)sc2c1CCC2 (stereo not shown) [Compound 22, 2-[[3-(pentylcarbamoyl)-5,6-dihydro-4H-cyclopenta[b]thiophen-2-yl]carbamoyl]cyclohexanecarboxylic acid]	20.3	
NC(=O)N1CCOCC1C(=O)Nc1sc2c(c1C(=O)Nc1ccc(Cl)cc1)CCC2 (stereo not shown) [Compound 82, N3-[3-[(4-chlorophenyl)carbamoyl]-5,6-dihydro-4H-cyclopenta[b]thiophen-2-yl]morpholine-3,4-dicarboxamide]	4.4	
O=C(Cc1cnccn1)Nc1sc2c(c1C(=O)Nc1ccc(Cl)cc1)CCC2 [Compound 78, N-(4-chlorophenyl)-2-[(2-pyrazin-2-ylacetyl)amino]-5,6-dihydro-4H-cyclopenta[b]thiophene-3-carboxamide]	1	
O=C(Nc1ccc(Cl)cc1)c1c(NC(=O)C2CCCC(C(=O)O)C2)sc2c1CCC2 (stereo not shown) [Compound 99, 3-[[3-[(4-chlorophenyl)carbamoyl]-5,6-dihydro-4H-cyclopenta[b]thiophen-2-yl]carbamoyl]cyclohexanecarboxylic acid]	16.6	
O=C(Nc1ncc(Cl)s1)c1c(NC(=O)C2CCCCC2C(=O)O)sc2c1CCC2 (stereo not shown) [Compound 29, 2-[[3-[(5-Chlorothiazol-2-yl)carbamoyl]-5,6-dihydro-4H-cyclopenta[b]thiophen-2-yl]carbamoyl]cyclohexanecarboxylic acid]	6.78	
O=C(Nc1ccc2c(c1)COC2)c1c(NC(=O)C2CCCCC2C(=O)O)sc2c1CCC2 (stereo not shown) [Compound 30, 2-[[3-(1,3-Dihydroisobenzofuran-5-ylcarbamoyl)-5,6-dihydro-4H-cyclopenta[b]thiophen-2-yl]carbamoyl]cyclohexanecarboxylic acid]	19.6	
O=C(Nc1ccc(Cl)cc1)c1ccsc1NC(=O)C1C2CCC(CC2)C1C(=O)O (stereo not shown) [Compound 71, 2-[[3-[(4-Chlorophenyl)carbamoyl]-2-thienyl]carbamoyl]bicyclo[2.2.2]octane-3-carboxylic acid]	12.2	
CC1OCc2sc(NC(=O)C3CCCCC3C(=O)O)c(C(=O)Nc3ccc(Cl)cc3)c21 (stereo not shown) [Compound 39, 2-[[3-[(4-Chlorophenyl)carbamoyl]-4-methyl-4,6-dihydrothieno[2,3-c]furan-2-yl]carbamoyl]cyclohexanecarboxylic acid]	53.5	
O=C(Nc1ccc(Cl)cc1)c1c(NC(=O)C2COC2)sc2c1CCC2 [Compound 94, N-[3-[(4-chlorophenyl)carbamoyl]-5,6-dihydro-4H-cyclopenta[b]thiophen-2-yl]oxetane-3-carboxamide]	12.9	
